Literature values as cited in publication PMC3197600 (PLoS Pathogens, 2011).

System: oseltamivir-resistant His274Tyr H1N1 infection
Settings: human, in vivo; cited from earlier work

## [H]/N=C(\N)N[C@H]1C=C(C(=O)O)O[C@@H]([C@H](OC)[C@H](O)COC(=O)CCCCCCC)[C@@H]1NC(C)=O [CS-8958, laninamivir octanoate]
  effectiveness compared with oseltamivir: not significantly better than oseltamivir
